Measurements taken from PubChem BioAssay AID330 (DTP/NCI, 2004).
Where “and” joins values, the source holds several entries; their conditions need not be identical. Equal values may be shown once. Toxic doses and inconclusive results are not listed.

Test system: P388 leukemia ip, CD2F1 mice, survival T/C
Assay: NCI In Vivo Anticancer Drug Screen. Data for tumor model P388 Leukemia (intraperitoneal) in CD2F1 (CDF1) mice
Conditions: endpoint: median survival time, higher = longer survival
In short: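 Mice carrying the transplanted tumor received test compound or vehicle. Survival was recorded in each group, and the value is the treated-group measurement divided by that of the vehicle-treated control group.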

[1] = dose: 50.0 mg/kg/injection, schedule: Q01DX005 (ip), vehicle: saline with Tween-80
[2] = dose: 100.0 mg/kg/injection, schedule: Q01DX005 (ip), vehicle: saline with Tween-80
[3] = dose: 200.0 mg/kg/injection, schedule: Q01DX005 (ip), vehicle: saline with Tween-80
[4] = dose: 100.0 mg/kg/injection, schedule: Q01DX009 (ip), vehicle: saline
[5] = dose: 200.0 mg/kg/injection, schedule: Q01DX009 (ip), vehicle: saline
[6] = dose: 50.0 mg/kg/injection, schedule: Q01DX009 (ip), vehicle: saline

For `O=C(N[C@@H](CO)[C@H]1CC(Br)=NO1)C(Cl)(Cl)Cl`, which T/C (dose: 12.5 mg/kg/injection, schedule: Q01DX005 (ip), vehicle: distilled water + Tween-80) is on record?
Its T/C is 100 % of control.

And the T/C (dose: 25.0 mg/kg/injection, schedule: Q01DX005 (ip), vehicle: distilled water + Tween-80)?
The T/C was 102 % of control.

What about the T/C (dose: 50.0 mg/kg/injection, schedule: Q01DX005 (ip), vehicle: distilled water + Tween-80) of the same compound?
The T/C was 105 % of control.

What about the T/C (dose: 100.0 mg/kg/injection, schedule: Q01DX005 (ip), vehicle: distilled water + Tween-80) of the same compound?
The T/C was 107 % of control.

With `NC(N)=N/N=C1/C=C2C/C(=N\N=C(N)N)C=C2C1` as the compound, how does the T/C (dose: 50.0 mg/kg/injection, schedule: Q01DX005 (ip), vehicle: Klucel (hydroxypropylcellulose) (HPC)) read?
The T/C was 106 % of control.

And the T/C (dose: 100.0 mg/kg/injection, schedule: Q01DX005 (ip), vehicle: Klucel (hydroxypropylcellulose) (HPC))?
The T/C was 104 % of control.

`COc1ccc(C(C)c2cc3c(cc2OCCO)OCO3)cc1` (configuration not stated) was tested. Which T/C [1] did it give?
The T/C was 105 % of control.

And the T/C [2]?
Its T/C is 102 % of control.

And the T/C [3]?
The T/C was 105 % of control.

`NC(=S)N/N=C/c1c(Cl)nc2sccn12` was tested. Which T/C (dose: 100.0 mg/kg/injection, schedule: Q01DX001 (ip), vehicle: Klucel (hydroxypropylcellulose) (HPC)) did it give?
The T/C was 92 % of control.

And the T/C (dose: 200.0 mg/kg/injection, schedule: Q01DX001 (ip), vehicle: Klucel (hydroxypropylcellulose) (HPC))?
The T/C was 97 % of control.

What about the T/C (dose: 400.0 mg/kg/injection, schedule: Q01DX001 (ip), vehicle: Klucel (hydroxypropylcellulose) (HPC)) of the same compound?
The T/C was 97 % of control.

How did the T/C (dose: 200.0 mg/kg/injection, schedule: Q01DX009 (ip), vehicle: saline with Tween-80) turn out when `CCCCCCCCCCCCCCC(O)C(=O)O` (configuration not stated) was run?
The T/C was 89 % of control.

With `COc1cc(NCCCCCNCC(C)(C)C)c2ncccc2c1` as the compound, how does the T/C (dose: 12.5 mg/kg/injection, schedule: Q01DX005 (ip), vehicle: saline with Tween-80) read?
The T/C was 109 % of control.

And the T/C (dose: 25.0 mg/kg/injection, schedule: Q01DX005 (ip), vehicle: saline with Tween-80)?
Its T/C is 107 % of control.

What about the T/C [1] of the same compound?
The T/C was 91 % of control and 93 % of control.

Which T/C [4] does the source give for `CC1=CC(=C2C=C(C)C(=O)C(C)=C2)C=C(C)C1=O` here?
The T/C was 97 % of control and 98 % of control.

What about the T/C [5] of the same compound?
The T/C was 91 % of control and 95 % of control.

And the T/C (dose: 400.0 mg/kg/injection, schedule: Q01DX009 (ip), vehicle: saline)?
The T/C was 93 % of control and 94 % of control.

What does the source list for `COc1cc(/C=N/NC(=O)CNC(=O)c2ccccc2)ccc1O`?
T/C (dose: 60.0 mg/kg/injection, schedule: Q01DX005 (ip), vehicle: saline with Tween-80): 93 % of control; T/C (dose: 120.0 mg/kg/injection, schedule: Q01DX005 (ip), vehicle: saline with Tween-80): 95 % of control; T/C (dose: 240.0 mg/kg/injection, schedule: Q01DX005 (ip), vehicle: saline with Tween-80): 94 % of control

What does the source list for `O=C1C(O)=C(O)C(=O)C(O)=C1O`?
T/C [6]: 108 % of control; T/C [4]: 111 % of control; T/C [5]: 117 % of control

With `O=C(Nc1cccc2c1C(=O)c1ccc(Nc3cc(NC(=O)c4ccccc4)c4c(c3)C(=O)c3ccccc3C4=O)cc1C2=O)c1ccccc1` as the compound, how does the T/C (dose: 100.0 mg/kg/injection, schedule: Q04DX003 (ip), vehicle: saline with Tween-80) read?
Its T/C is 100 % of control.

What about the T/C (dose: 200.0 mg/kg/injection, schedule: Q04DX003 (ip), vehicle: saline with Tween-80) of the same compound?
Its T/C is 100 % of control.

What about the T/C (dose: 400.0 mg/kg/injection, schedule: Q04DX003 (ip), vehicle: saline with Tween-80) of the same compound?
The T/C was 109 % of control.

With `CC1(c2ccccc2)C(=O)c2ccccc2N1O` (configuration not stated) as the compound, how does the T/C (dose: 50.0 mg/kg/injection, schedule: Q04DX002 (ip), vehicle: saline) read?
Its T/C is 98 % of control.

What about the T/C (dose: 100.0 mg/kg/injection, schedule: Q04DX002 (ip), vehicle: saline) of the same compound?
Its T/C is 100 % of control.

And the T/C (dose: 200.0 mg/kg/injection, schedule: Q04DX002 (ip), vehicle: saline)?
Its T/C is 101 % of control.

How did the T/C [1] turn out when `CCn1c2ccc([N+](=O)[O-])cc2c2c([N+](=O)[O-])c(NC=O)ccc21` was run?
Its T/C is 90 % of control.

And the T/C [2]?
Its T/C is 95 % of control.

What about the T/C [3] of the same compound?
The T/C was 86 % of control.

Which results are given for `COc1cc2cc(c1Cl)N1CC(=O)C(C)(O)C(=O)N(C)C(C)C(=O)OC(CC1=O)C1(C)OC1C(C)C1CC(O)(NC(=O)O1)C(OC)/C=C\C=C(\C)C2OC` (configuration not stated)?
T/C (dose: 2.0 micrograms/kg/injection, schedule: Q01DX009 (ip), vehicle: distilled water + alcohol): 151 % of control; T/C (dose: 4.0 micrograms/kg/injection, schedule: Q01DX009 (ip), vehicle: distilled water + alcohol): 153 % of control and 168 % of control; T/C (dose: 16.0 micrograms/kg/injection, schedule: Q01DX009 (ip), vehicle: distilled water + alcohol): 210 % of control

How did the T/C [6] turn out when `O=C(O)C(=O)Nc1cccc2c1ccc1c(=O)cc(C(=O)O)[nH]c12` was run?
Its T/C is 109 % of control.

And the T/C [4]?
Its T/C is 109 % of control.

What about the T/C [5] of the same compound?
Its T/C is 104 % of control.

`COCCO[Si](OCCOC)(OCCOC)c1ccccc1` was tested. Which T/C (dose: 50.0 mg/kg/injection, schedule: Q01DX009 (ip), vehicle: Klucel (hydroxypropylcellulose) (HPC)) did it give?
Its T/C is 101 % of control.

And the T/C (dose: 100.0 mg/kg/injection, schedule: Q01DX009 (ip), vehicle: Klucel (hydroxypropylcellulose) (HPC))?
The T/C was 107 % of control.

And the T/C (dose: 200.0 mg/kg/injection, schedule: Q01DX009 (ip), vehicle: Klucel (hydroxypropylcellulose) (HPC))?
Its T/C is 117 % of control.

For `COc1cc2c[n+]3c(c(C)c2cc1OC)-c1cc2c(cc1CC3)OCO2`, which T/C (dose: 6.25 mg/kg/injection, schedule: Q04DX003 (ip), vehicle: distilled water + Tween-80) is on record?
The T/C was 106 % of control.

And the T/C (dose: 12.5 mg/kg/injection, schedule: Q04DX003 (ip), vehicle: distilled water + Tween-80)?
The T/C was 113 % of control.

What about the T/C (dose: 25.0 mg/kg/injection, schedule: Q04DX003 (ip), vehicle: distilled water + Tween-80) of the same compound?
Its T/C is 116 % of control.

What about the T/C (dose: 50.0 mg/kg/injection, schedule: Q04DX003 (ip), vehicle: distilled water + Tween-80) of the same compound?
Its T/C is 108 % of control.
